# Laboratory results as given in patent US9045450B2, “Method for chemical synthesis of antrocin and use thereof for suppressing non-small cell lung cancer” (KAIYEW INVESTMENT CORP., priority 2011, dated 2015).
# Entries after “also recorded” stand apart in the source; their conditions may differ.
# Experiments:
# breast cancer cells = conditions: natural antrocin isolated from Antrodia; Rao et al., 2011; cited from earlier work
# H441 cells = experiment: Apoptosis, flow cytometry; type: cell-based, human; conditions: H441, antrocin treatment for 48 hours, FIG. 4 (B)
# H441-L2G cells = experiment: Lung tumorigenesis in vivo, bioluminescence imaging and survival; design: species or system non-obese diabetic/severe combined immunodeficient mice; conditions: for tumor growth: daily intraperitoneal injection
# Description: […] cells (6×10^5/100 μl PBS) were intravenously injected into immunodeficient mice via lateral tail vein. Antrocin treatments (low dose of 5 mg/kg/day and high dose of 10 mg/kg/day) were performed by daily intraperitoneal injection into tumor-bearing mice over a period of four weeks. Weekly observations were performed and data were recorded for (A) VIS images, (B) Tumor growth, (C) Body weights, and (D) Survival curves.
# The present invention further investigated anticancer effect of antrocin in vivo. H441-L2G cells expressing firefly luciferase and green fluorescent protein were implanted by intravenous injections via the lateral tail vein (6×10^5/100 μl PBS) into non-obese diabetic/severe combined immunodeficient mice. Daily intraperitoneal injections of antrocin (two groups of mice, a low dose of 5 mg/kg/day and a high dose of 10 mg/kg/day) were given over a period of four weeks to observe tumor growth.
# Firefly luminescence genes (firefly luciferase) was introduced into H441 lung cancer stem cells by transgenesis, lung cancer cells (containing firefly luminescence genes) were then isolated from H441 lung cancer stem cells by FACS (Fluorescence-activated cell sorting) and implanted into immunodeficient mice subcutaneously or into the circulation system via the tail vein. IVIS imaging system (IVIS® Imaging System 200 Series, Xenogen) was used in the present embodiment for bioluminescent imaging. All mice were introduced with 150 mg/kg D-luciferin by intraperitoneal injection, after 10 minutes the mice were fixed in the darkroom of the IVIS200, the highly sensitive CCD camera of the IVIS 200 was used to detect the cold light radiated by firefly luminescence genes in H441 cancer cells. All mice were imaged for 120 seconds and the imaging time was shortened when the signal strength was saturated. All mice were anesthetized (2% isoflurane and 98% oxygen gas) and unconscious throughout the entire imaging process. Tumor sizes and signal strength radiated by the cold-light were compared and analyzed by using a software package of the IVI200. The inhibitory effect of antrocin on human lung cancer cells was assessed by using this bio-illumination-imaging system.
# The present invention further investigated the anticancer effect of antrocin in vivo. H441-L2G cells expressing firefly luciferase and green fluorescent protein were implanted by intravenous injections via the lateral tail vein (6×10^5/100 μl PBS) into non-obese diabetic/severe combined immunodeficiency mice. Daily intraperitoneal injections of antrocin (two groups of mice, a small dose of 5 mg/kg/day and a large dose of 10 mg/kg/day) were given over a period of four weeks to observe tumor growth.
# [1] = system: normal human bronchial epithelial cells (BEAS-2B); experiment: Cytotoxicity, sulforhodamine B; type: cell-based; conditions: antrocin 0.5-10 μM, two days, FIG. 4 (A)
# Description: Human lung cancer cell lines (CL1-0, CL1-5, H1975, H441, PC9, A549) and human bronchial epithelia cell lines (BEAS-2B) were obtained from the Institute of Clinical Medicine, Taipei Medical University. The cells were grown and maintained in DMEM medium (Dulbecco's Modified Eagle's Medium and RPMI basal medium supplemented with 10% fetal bovine serum, 2 mM glutamine, […] streptomycin, and 100 U/ml penicillin in a wet incubator at 5% CO2.
# Human lung cancer cells (CL1-0, CL1-5, H1975, H441, PC9, A549) and human bronchial epithelial cells (BEAS-2B) were seeded in 96-well culture plates (2000 cells/well) and incubated overnight in 100 μl complete DMEM. Equal amount of complete DMEM sample containing 50 μl antrocin (0.5-10 μM) was placed in other wells of the culture plates. Further, 100 μl complete DMEM sample was also placed in wells as the control group. After two days, total number of human cells in each well was measured using sulforhodamine B (a fluorescent protein dye). Briefly, human cells were fixed in 10% trichloroacetic acid and stained with 0.4% sulforhodamine B. After being stained for 20 minutes, the human cells were washed with 1% acetic acid, and then sulforhodamine B, which was bound with human cells, was dissolved in 10 mM tris base. The optical density was measured at 562 nm by a microtiter plate detector. […]
# H1975 cells = experiment: Apoptosis, flow cytometry; type: cell-based, human; conditions: H1975, antrocin treatment for 48 hours, FIG. 4 (B)
smiles,measurement,setting,value
C=C1CC[C@H]2C(C)(C)CCC[C@@]23C(=O)OC[C@@H]13 [antrocin],inhibition of cell proliferation in breast cancer cells,breast cancer cells,inhibited the cell proliferation; also recorded: effectively inhibited cell proliferation
same,number of cells in early and late (final) stage of apoptosis,H441 cells,increase in the number of cells in early and late stage of apoptosis in a dose-dependent fashion; also recorded: increased significantly in a dose-dependent fashion
same,increase of median survival time,H441-L2G cells; at the end of the experiment (the fiftieth day),at least 60%
same,mice that survived for longer than 50 days,H441-L2G cells; low dose 5 mg/kg/day,75%
same,tumor growth,"H441-L2G cells; low dose 5 mg/kg/day, after two weeks",inhibited after two weeks in half of the mice
same,tumor growth,"H441-L2G cells; low dose 5 mg/kg/day, third week",tumor growth was observed in most of these mice
same,median survival,"H441-L2G cells; treated group, control group 28 days, FIG. 7 (D)",> 50 days
same,cytotoxicity against normal human bronchial epithelial cells,[1],no cytotoxicity
same,number of cells in early and late (final) stage of apoptosis,H1975 cells,increase in the number of cells in early and late stage of apoptosis in a dose-dependent fashion; also recorded: increased significantly in a dose-dependent fashion
